In patent US20020187925A1, “Modulating the activity of hormones or their receptors - peptides, antibodies, vaccines and uses thereof” (priority 1996, published 2002):
Non-standard residues stand in square brackets, D forms with d. No end group written: not given here. NMeY = CN[C@@H](Cc1ccc(O)cc1)C(=O)O

Legend:
[1] = Immunisation of male pigs from 12 weeks of age; type: in vivo
Excerpt: Male pigs immunised with this peptide three times from 12 weeks of age grew an average of […] faster than non-immunised pigs to 24 weeks of age, and the testicle size of the immunised pigs was approximately 50% the size of those of the non-immunised animals.

[2] = Example 22: pregnant pigs immunised twice in last trimester; anti-SRIF antibodies and piglet growth rates; type: in vivo; conditions: for absolute growth rates of the piglets: birth to weaning, non-immunised control 165; for anti-SRIF antibodies in colostrum and milk of the sow and in blood and gut scrapings of piglets: piglets at 3 days and 21 days of age, antigen in the preferred oil
Excerpt: The absolute growth rates of the piglets from birth to weaning were: […]

[3] = Example 23: weaning weight of piglets of immunised sows; type: in vivo, pigs; conditions: 21 days of age; sows immunized twice in last trimester
Excerpt: Sows immunized twice in the last trimester of pregnancy with SEQ ID No 3 produced piglets which were on average 27% heavier at weaning (at 21 days of age) than the offsprings of sows immunised with SRIF 14 conjugate vaccine. The levels of anti-SRIF antibodies measured are given below: […]

[4] = system: SRIF; assay: Example 23: levels of anti-SRIF antibodies in gut, plasma, milk; type: in vivo, pigs; conditions: for Gut IgA anti-SRIF antibodies / Gut IgG anti-SRIF antibodies / Plasma IgA anti-SRIF antibodies / Plasma IgG anti-SRIF antibodies: piglets
Excerpt: Sows immunized twice in the last trimester of pregnancy with SEQ ID No 3 produced piglets which were on average 27% heavier at weaning (at 21 days of age) than the offsprings of sows immunised with SRIF 14 conjugate vaccine. The levels of anti-SRIF antibodies measured are given below:
Significant quantities of antibodies to SRIF were detected in the plasma and gut scrapings of piglets sucking sows immunised with SRIF/BSA or SEQ ID NO:3 emulsified in the oil of the invention.

[5] = Immunisation of growing lambs with antigen in oil; type: in vivo
Protocol: When this antigen was injected three times into growing lambs with the preferred delivery vehicle (oil), anti-SRIF and anti-cholecystokinin antibodies were detectable at 84 days of age. By this time, the immunised lambs had grown an average of 20% more than non-immunised lambs.

[6] = Solubility in sterile saline; type: physicochemical; conditions: sterile physiological saline / sterile saline solutions
[7] = Growth of piglets suckling dams vaccinated in last trimester of pregnancy; type: in vivo, pigs; conditions: birth to weaning
Excerpt: Piglets suckling dams which had been vaccinated with this molecule in the last trimester of pregnancy grew an average of 40% faster from birth to weaning than did corresponding piglets which were suckling non-immunised dams.

[8] = Example 16: pregnant gilts immunised with FEEDMIZA or SRIF-conjugate; liveweight gain, feed conversion; type: in vivo, pigs
Protocol: This experiment was designed to measure the effects of vaccinating pregnant gilts with FEEDMIZA by the subcutaneous route during first pregnancy. Opportunity was taken to compare any response to FEEDMIZA with response to a SRIF-conjugate vaccine delivered in the same delivery vehicle as peptide No.1. For that comparison the quantity of antigen was standardised at 100 μg of SRIF in the SRIF-conjugate, and 100 μg of the FEEDMIZA antigen.
Twenty four Landrace X Large White female hybrid gilts were selected, mated and held in conventional dry sow stalls. They were randomly assigned to 3 treatment groups, viz:
The gilts were immunised by subcutaneous injection of 3 ml of the relevant antigen at the neck-on the day of mating.
The animals were held in conventional single dry sow stalls. At 30 days of pregnancy the treatment groups were reduced to 5 confirmed pregnant animals per treatment group. Subsequent vaccinations were performed at weeks 6, 9 and 12 of pregnancy. Each gilt was fed 3 kg of feed (Breedmore sow ration, Barastoc, Melbourne) each day from mating until farrowing. Each animal was weighed at mating, and at intervals of 3 weeks until farrowing.

[9] = Example 17: sows of Example 16 during lactation; liveweight loss; type: in vivo, pigs
Excerpt: This experiment was a continuation of the trial of Example 16. It sought to observe the rate of liveweight gain of piglets during the lactation period up to weaning for piglets whose dams were immunised during gestation with FEEDMIZA, or with a SRIF-conjugate vaccine, using piglets being reared by non-immunised dams as controls.
Sows from Example 16 continued to be reared without any further immunisations or manipulations, with the exception that;
a) daily feed offered was increased to 6 kg per head from farrowing to weaning 21 days later.
b) 3 days after farrowing the number of piglets on each sow was reduced to 8 to ensure that each litter of pigs in the experiment was benefiting from the combined effects of the quantity of milk produced, and ingested any antibodies that might be in them, without confounding influences of varying litter sizes, social interactions, and competition for teats. Sows were weighed at weaning.
Piglets were individually identified at birth, and were weighed at birth, and each 7 days until weaning at 21 days of age. All piglets received a routine oral dose of broad spectrum antibiotic (Tribrissen Piglet Suspension, Intervet, Melbourne) at three days of age, as well as an intramuscular supplemental iron injection Pignaemia, Intervet, Melbourne)
Water was available ad libitum to sows and piglets at all times.

[10] = Example 18: liveweights of piglets of immunised sows; type: in vivo, pigs
Excerpt: This experiment sought to study the effects pre-farrowing immunisation of sows with SRIF-conjugate vaccine, or FEEDMIZA vaccine on the subsequent patterns of liveweight gain of their sucking piglets to weaning at 3 weeks of age, and for the post-weaning period The experiment monitored the piglets which were the subject of the previous experiment.
The piglets (8 per litter) on each of the 5 sows in the treatment groups (non-immunised, SRIF-conjugate immunised and FEEDMZA-immunised) were individually eartagged for identification, and were weighed at birth, 7, 14, 21 days (the day of weaning) and 35 days of age (2 weeks post-weaning).
During lactation the piglets had ready access to a creep area which was warmed by an infra-red lamp, water ad libitum and creep feed granules (Barastoc, Melbourne) for the period of 18-21 days of age. They had no access to their mothers feed during the period of lactation
At weaning each litter of piglets was placed in a flatdeck weaning cage with 50% of the floor being bedding area, and 50% woven wire mesh. The cage was provided with a small silo feeder containing the same creep/weaner feed which had been offered to the piglets for the 3 days prior to weaning. Feed and fresh drinking water were offered ad libitum.

## F-W-K-T-S-K-H-W-S-Y-G-L-R-D-G-C (FWKTSKHWSYGLRDGC) [SEQ ID NO:53]
[1]; male pigs immunised three times from 12 weeks, to 24 weeks of age
  grew faster than non-immunised pigs: 12 weeks
[1]; male pigs, 24 weeks of age
  testicle size relative to non-immunised animals: approximately 50%

## C-F-W-K-T-C-S-G (CFWKTCSG; not fully specified (bridges); printed as C-F-W-K-T-C-S-G; cysteine pairing not given here) [SEQ ID NO:3]
[2]
  absolute growth rates of the piglets: 275 g per day
  anti-SRIF antibodies in colostrum and milk of the sow and in blood and gut scrapings of piglets: produced anti-SRIF antibodies
[3]
  piglets heavier at weaning than offspring of sows immunised with SRIF 14 conjugate vaccine: 27%
[4]; DAY 3
  Milk/colostrum IgA anti-SRIF antibodies: 0.026 ± 0.028 OD @ 405 nm
  Sow's milk IgG anti-SRIF antibodies: 1.4 ± 0.162 OD @ 405 nm
  Gut IgA anti-SRIF antibodies: 0.12 ± 0.157 OD @ 405 nm
  Gut IgG anti-SRIF antibodies: 0.51 ± 0.21 OD @ 405 nm
  Plasma IgA anti-SRIF antibodies: 1.43 ± 0.217 OD @ 405 nm
  Plasma IgG anti-SRIF antibodies: 0.9 ± 0.13 OD @ 405 nm
[4]; DAY 21
  Gut IgA anti-SRIF antibodies: 0.10 ± 0.087 OD @ 405 nm
  Gut IgG anti-SRIF antibodies: 0.123 ± 0.09 OD @ 405 nm
  Plasma IgA anti-SRIF antibodies: 0.567 ± 0.21 OD @ 405 nm
  Plasma IgG anti-SRIF antibodies: 2.12 ± 0.23 OD @ 405 nm

## A-Y-M-G-W-S-C-T-K-W-F (AYMGWSCTKWF) [SEQ ID NO:52]
[5]; by 84 days of age
  growth more than non-immunised lambs: 20%
[5]; lambs injected three times in oil, at 84 days of age
  anti-SRIF and anti-cholecystokinin antibodies: detectable

## F-W-K-T-S-G-G (FWKTSGG) [SEQ ID NO:4]
[2]
  absolute growth rates of the piglets: 240 g per day
  anti-SRIF antibodies in colostrum and milk of the sow and in blood and gut scrapings of piglets: produced anti-SRIF antibodies

## SRIF/BSA: SRIF 14 (native somatostatin) conjugate presented with the preferred oil [reference compound]
[2]
  absolute growth rates of the piglets: 180 g per day
  anti-SRIF antibodies in colostrum and milk of the sow and in blood and gut scrapings of piglets: produced anti-SRIF antibodies
[4]; DAY 3
  Milk/colostrum IgA anti-SRIF antibodies: 0.029 ± 0.035 OD @ 405 nm
  Sow's milk IgG anti-SRIF antibodies: 1.6 ± 0.22 OD @ 405 nm
  Gut IgA anti-SRIF antibodies: 0.189 ± 0.133 OD @ 405 nm
  Gut IgG anti-SRIF antibodies: 0.684 ± 0.548 OD @ 405 nm
  Plasma IgA anti-SRIF antibodies: 1.067 ± 0.469 OD @ 405 nm
  Plasma IgG anti-SRIF antibodies: 1.38 ± 0.44 OD @ 405 nm
[4]; DAY 21
  Gut IgA anti-SRIF antibodies: 0.037 ± 0.05 OD @ 405 nm
  Gut IgG anti-SRIF antibodies: 0.259 ± 0.18 OD @ 405 nm
  Plasma IgA anti-SRIF antibodies: 0.798 ± 0.49 OD @ 405 nm
  Plasma IgG anti-SRIF antibodies: 1.779 ± 0.13 OD @ 405 nm

## NMe-Y-D-T-K-V-F-C-S ([NMeY]DTKVFCS) [SEQ ID NO:51]
[6]
  solubility in sterile saline: very poorly soluble
[7]
  growth of suckling piglets faster than piglets suckling non-immunised dams: 40%

## SRIF-conjugate: SRIF-conjugate vaccine delivered in the same delivery vehicle as peptide No.1 (SANSNPAMAPRERKAGCKNFFWKTFTSC; ends and bridges not checked; also: SRIF-conjugate vaccine (conjugated, site not given here))
[8]; mating to parturition, 345 Kg feed, non-immunised 60
  average liveweight gain per head during pregnancy: 75 kg
[8]; weeks 12 and 15 of pregnancy (SRIF: from 9 weeks)
  liveweight relative to non-immunised sows: at no point was this difference ever stastically significant
[9]; sows
  Farrowing weight: 154 ± 27.68 kg
  Weaning weight: 166.4 ± 26 kg
[9]; sows, farrowing to weaning
  Weight loss: 7.2
[9]; three weeks lactation period, non-immunised 10.8
  mean loss of liveweight of sows: 12 kg
[10]; 21 days of age
  liveweights of the piglets at weaning: 7.32 ± 1.30 kg
[10]; 35 days of age
  Liveweights of the piglets 2 weeks after weaning: 8.89 ± 1.33 kg
[10]; born to immunised sows
  mean birthweights of the piglets: 1.40 ± 0.29 kg

## LCFWKTC [SEQ ID NO:1]
[6]
  solubility in sterile saline: relatively soluble

## F-W-K-T-S-T-K-T-S-T-K-W-F (FWKTSTKTSTKWF) [SEQ ID NO:5]
[2]
  anti-SRIF antibodies in colostrum and milk of the sow and in blood and gut scrapings of piglets: produced anti-SRIF antibodies
